Earlier results, collected in patent US20100022576A1 (priority 2006, published 2010).

Tests used:
[1] = tested on: human mast cells; details: in vitro
[2] = in vivo

Clc1ccc2c(c1)CCc1cccnc1C2=C1CCNCC1 [desloratadine]
Release of histamine from human mast cells [1]: inhibits release of histamine from human mast cells | Effect of food and grapefruit juice on bioavailability [2]: Neither food nor grapefruit juice has an effect
